Data: PubChem BioAssay (NCI)
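48-hour exposure; five concentrations; linearly interpolated endpoints. TGI denotes the concentration required for complete inhibition of growth.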

Assays:
Assay in all cases: growth of human tumour cells (NCI), 48 h
[1] = test system: 786-0 renal
[2] = test system: BT-549 breast
[3] = test system: HCT-116 colon
[4] = test system: HOP-62 NSCLC
[5] = test system: HS 578T breast
[6] = test system: HT29 colon
[7] = test system: IGROV1 ovarian
[8] = test system: K-562 leukemia
[9] = test system: M14 melanoma
[10] = test system: NCI-H522 lung
[11] = test system: PC-3 prostate
[12] = test system: RPMI-8226 leukemia
[13] = test system: SK-MEL-28 melanoma
[14] = test system: SNB-19 CNS
[15] = test system: SW-620 colon
[16] = test system: U251 CNS
[17] = test system: UACC-257 melanoma
[18] = test system: NCI-H226 lung
[19] = test system: HOP-92 NSCLC

Compound | TGI [1] [µM] | TGI [2] [µM] | TGI [3] [µM] | TGI [4] [µM] | TGI [5] [µM] | TGI [6] [µM] | TGI [7] [µM] | TGI [8] [µM] | TGI [9] [µM] | TGI [10] [µM] | TGI [11] [µM] | TGI [12] [µM] | TGI [13] [µM] | TGI [14] [µM] | TGI [15] [µM] | TGI [16] [µM] | TGI [17] [µM] | TGI [18] [µM] | TGI [19] [µM]
COC[C@H](Cc1ccccc1)N=Cc1ccccc1 | > 100 | > 100 | > 100 | > 100 | > 100 | > 100 | > 100 | > 100 | > 100 | > 100 | > 100 | > 100 | > 100 | > 100 | > 100 | > 100 | > 100 |  | 
OB1OCc2ccccc21 | > 100 | > 100 | > 100 | 62.9 | > 100 | > 100 | > 100 | > 100 | > 100 |  | 64.4 | 45.9 | 63 | > 100 | > 100 | > 100 | > 100 | > 100 | 
O=c1n(CCO)nc2n1CCCN2 | > 100 | > 100 | > 100 | > 100 | > 100 | > 100 | > 100 | > 100 | > 100 |  | > 100 | > 100 | > 100 | > 100 | > 100 | > 100 |  | > 100 | > 100
COc1cc2c(cc1C)NC(=O)/C2=C/c1c(Cl)n(C)c2ccccc12 | 30.7 | 24.4 | 21.9 | 29.5 | 12.8 | 22.5 | 17.1 | > 100 | 48.1 |  | 29.6 | > 100 | 62.6 | 38.6 | > 100 | 28 | 34.7 | 27.2 | 
O=S(=O)(CC#CCS(=O)(=O)c1ccccc1)c1ccccc1 | 2.24 | 11.8 | 2.39 | 20.7 | > 36.5 | 27.7 | 2.94 |  | 4.36 | 1.63 | 22.3 |  | 25.7 | 32.9 | > 100 | 24.5 | 14.7 | 34.7 | 3.39
N#Cc1ccc(/C=C2\Cc3ccccc3C2=O)cc1 | > 100 | > 100 | > 100 | > 100 | > 100 | > 100 |  | > 100 | > 100 | > 100 | > 100 | > 100 | > 100 | > 100 | > 100 |  | > 100 | > 100 | 
Cc1cc(C)n(CN(Cn2nc(C)cc2C)c2ccc(N(Cn3nc(C)cc3C)Cn3nc(C)cc3C)cc2)n1 | 43.4 | 39.2 | 31.3 | 52.7 | 57 | 45 | 50.7 | 50.3 | 36.5 | 42.5 | 74.6 | 40 | 37.1 | 64.5 | 61.4 | 91.1 | 40.6 |  | 62.2
Cc1c2cccc-2c(N(C)C)cc2c1[nH]c1ccccc12 | 12 | 8.19 | 12.6 | 15.1 | 13.8 | 18.2 | 4.9 |  | 18.9 |  | 5.33 | 5.73 | 6.84 | 22.1 | 18.9 | 4.01 | 26.4 | 21.8 | 3.54
COc1cc(C=Nc2ccc(Oc3ccc(Cl)cc3)c(Cl)c2)cc(OC)c1OC | 29.6 | 38 | 29.2 | 49 | 41.6 | 44 | 67.1 |  | 58.2 | 28.1 | 36.2 | > 100 | 53.8 | 49.1 | > 100 | 40.8 | 47.7 | 80.9 | 39.4
O=C1c2ccccc2C(=O)c2c1c1cc(O)ccc1n2Cc1ccc(Cl)cc1Cl | 8.09 | 36.9 | 73.2 | 9.88 | > 100 | 51 | 21.2 | > 100 | 46.6 |  | 3.97 | 26.7 | 36.1 | 34.7 | > 100 | 12.2 | 69.9 | 31.1 | 
O=S(=O)(N1CCCCN(S(=O)(=O)C(F)(F)F)CCCN(S(=O)(=O)C(F)(F)F)CCCN(S(=O)(=O)C(F)(F)F)CCCCN(S(=O)(=O)C(F)(F)F)CCCN(S(=O)(=O)C(F)(F)F)CCC1)C(F)(F)F | 35.3 | 73.2 | > 100 | > 100 | 92.4 | > 100 | > 100 | > 100 | > 100 | > 100 | > 100 |  | > 100 | > 100 | > 100 | 64.1 | > 100 | > 100 | > 100
CCCCCCc1cc2cc(C(=O)Nc3cccc(C(F)(F)F)c3)c(=N)oc2cc1O | 6.27 | 6.1 | 4.57 | 5.03 | 9.99 | > 100 | 11.1 |  | 6.18 | 2.67 | 15.1 | > 20.3 | 27.6 | > 44.3 | > 46.1 | 3.5 | 8.95 | 3.52 | 2.14
N#C/C(=C/NC(=S)Nc1ccc(S(N)(=O)=O)cc1)C(N)=O | > 100 | > 100 | > 100 | > 100 | > 100 | > 100 | > 100 |  | > 100 | > 100 | > 100 | > 100 | > 100 |  | > 100 | > 100 | > 100 |  | > 100
COc1ccc2[nH]c3c(C)c4ccnc(NCCCN(C)CCCNC(=O)NCCCN(C)CCCNc5nccc6c(C)c7[nH]c8ccc(OC)cc8c7c(C)c56)c4c(C)c3c2c1 | 1.2 | 4.99 | 5.48 | 2.11 | > 50 | 1.19 | 2.05 | > 50 | 1.33 |  | 2.79 | > 14.5 | > 15.5 | 2.13 | 1.3 |  | > 14.3 |  | 3.93
O=C(CSCC(=O)N/N=C\c1cc(Br)cc(Br)c1O)N/N=C\c1cc(Br)cc(Br)c1O | > 100 | > 100 | > 100 | > 100 | > 100 | > 100 | 66.2 | 80.1 | 34.8 | 50.9 | > 100 |  | > 100 | > 100 | > 100 | 22.3 | 62 | 58.2 | 79
CC(C)(Oc1ccc(C2C[C@H]2Cl)cc1)C(=O)O (stereo partly drawn) | > 100 | > 100 | > 100 | > 100 | > 100 |  | > 100 | > 100 |  | > 100 | > 100 | > 100 | > 100 | > 100 | > 100 | > 100 | > 100 |  | > 100
C=CC(C)(C)c1cc([C@@H]2COc3cc(O)ccc3C2=O)c(O)c(OC)c1OC | 31.9 | 25.1 | 24.5 |  | 72.2 | 47.3 |  | > 100 | 31.2 | 20.9 | 34.8 |  | 52.6 | 30.6 | > 100 | 26.8 | 44.9 | 38.9 | 21.6
COC[C@@H](N=Cc1ccc(OC)cc1)C(C)C | > 100 | > 100 | > 100 | > 100 | > 100 | > 100 | > 100 | > 100 | > 100 | > 100 | > 100 | > 100 | > 100 |  | > 100 | > 100 | > 100 |  | 
CC1=C2CC3=C(C)C(=O)O[C@H]3C[C@@H](C)[C@@H]2CC1 | > 100 | > 100 | > 100 |  | > 100 | > 100 | > 100 | > 100 | > 100 |  | > 100 | > 100 | > 100 | > 100 | > 100 | > 100 | > 100 | > 100 | > 100
COc1c(-c2ccc3c(c2)OCO3)oc2cc3c(c(OC)c2c1=O)OCO3 | > 100 | 46.6 | 39.3 | 34.9 | 93.9 | > 100 | 55.1 | > 100 | > 100 | 52.6 | 58 |  | > 100 | 43.4 | > 100 | 36.7 | > 100 | 42.5 | 79.6
COc1ccc(/C=N/NC(=O)c2ccccc2Nc2ccccc2C(=O)N/N=C/c2ccc(OC)c(OC)c2)cc1OC | > 100 | > 100 | > 100 | > 100 | > 100 | > 100 | > 100 | > 100 | > 100 |  | > 100 | > 100 | > 100 | > 100 | > 100 | > 100 | > 100 | > 100 | > 100
